# What was measured:
# Gemcitabine = compound: Nc1ccn([C@@H]2O[C@H](CO)[C@@H](O)C2(F)F)c(=O)n1 [Gemcitabine]; conditions: max 0.3 µM
# Procedure, shortened: (§1)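 In 1536-well plates, cancer cell lines in 7.5 μl DMEM/F12 or RPMI with 10% FBS spent 24 hours at 37°C and 5% CO2 and were then dosed for 72 hours with final DMSO typically 0.2%. Viability was read by CellTiter-Glo 2.0 luminescence and scaled between blank-well and DMSO-well means. The single-agent IC50 was fitted from dose responses using a logistic curve in a non-linear mixed effects model, and that logistic curve had two parameters.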
# SN-38 = compound: CCc1c2c(nc3ccc(O)cc13)-c1cc3c(c(=O)n1C2)COC(=O)[C@]3(O)CC [SN-38]; conditions: max 0.3 µM
# Procedure, shortened: as §1
# Dasatinib = compound: CC1=C(C(=CC=C1)Cl)NC(=O)C2=CN=C(S2)NC3=CC(=NC(=N3)C)N4CCN(CC4)CCO [Dasatinib]; conditions: max 2 µM
# Procedure, shortened: as §1
# Venetoclax = compound: CC1(C)CCC(CN2CCN(c3ccc(C(=O)NS(=O)(=O)c4ccc(NCC5CCOCC5)c([N+](=O)[O-])c4)c(Oc4cnc5[nH]ccc5c4)c3)CC2)=C(c2ccc(Cl)cc2)C1 [Venetoclax]; conditions: max 1 µM
# Procedure, shortened: as §1
# AZD2811 = compound: CCN(CCO)CCCOc1ccc2c(Nc3cc(CC(=O)Nc4cccc(F)c4)[nH]n3)ncnc2c1 [AZD2811]; conditions: max 1 µM
# Procedure, shortened: as §1
# Taselisib = compound: Cc1nc(-c2cn3c(n2)-c2ccc(-c4cnn(C(C)(C)C(N)=O)c4)cc2OCC3)n(C(C)C)n1 [Taselisib]; conditions: max 10 µM
# Procedure, shortened: as §1
# AZD5363 = compound: C1CN(CCC1(C(=O)N[C@@H](CCO)C2=CC=C(C=C2)Cl)N)C3=NC=NC4=C3C=CN4 [AZD5363]; conditions: max 10 µM
# Procedure, shortened: as §1
# Olaparib = compound: O=C(c1cc(Cc2n[nH]c(=O)c3ccccc23)ccc1F)N1CCN(C(=O)C2CC2)CC1 [Olaparib]; conditions: max 10 µM
# Procedure, shortened: as §1
# Savolitinib = compound: C[C@@H](c1ccc2nccn2c1)n1nnc2ncc(-c3cnn(C)c3)nc21 [Savolitinib]; conditions: max 1 µM
# Procedure, shortened: as §1
# Etoposide = compound: COc1cc([C@@H]2c3cc4c(cc3[C@@H](O[C@@H]3O[C@@H]5CO[C@@H](C)O[C@H]5[C@H](O)[C@H]3O)[C@H]3COC(=O)[C@H]23)OCO4)cc(OC)c1O [Etoposide]; conditions: max 10 µM
# Procedure, shortened: as §1
# Lapatinib = compound: CS(=O)(=O)CCNCc1ccc(-c2ccc3ncnc(Nc4ccc(OCc5cccc(F)c5)c(Cl)c4)c3c2)o1 [Lapatinib]; conditions: max 10 µM
# Procedure, shortened: as §1
# Carboplatin = compound: C1CC(C1)(C(=O)[O-])C(=O)[O-].N.N.[Pt+2] [Carboplatin]; conditions: max 10 µM
# Procedure, shortened: as §1
# Crizotinib = compound: C[C@@H](Oc1cc(-c2cnn(C3CCNCC3)c2)cnc1N)c1c(Cl)ccc(F)c1Cl [Crizotinib]; conditions: max 10 µM
# Procedure, shortened: as §1
# Gefitinib = compound: COc1cc2ncnc(Nc3ccc(F)c(Cl)c3)c2cc1OCCCN1CCOCC1 [Gefitinib]; conditions: max 10 µM
# Procedure, shortened: as §1
# Doxorubicin = compound: COc1cccc2c1C(=O)c1c(O)c3c(c(O)c1C2=O)C[C@@](O)(C(=O)CO)C[C@@H]3O[C@H]1C[C@H](N)[C@H](O)[C@H](C)O1 [Doxorubicin]; conditions: max 1 µM
# Procedure, shortened: as §1
# AZD5991 = compound: Cc1c2c(nn1C)CSCc1cc(n(C)n1)CSc1cc(c3ccccc3c1)OCCCc1c(C(=O)O)n(C)c3c-2c(Cl)ccc13 [AZD5991]; conditions: max 1 µM
# Procedure, shortened: as §1
# AZD1775 = compound: C=CCn1c(=O)c2cnc(Nc3ccc(N4CCN(C)CC4)cc3)nc2n1-c1cccc(C(C)(C)O)n1 [AZD1775]
# Procedure, shortened: as §1
# Alisertib = compound: COc1cc(Nc2ncc3c(n2)-c2ccc(Cl)cc2C(c2c(F)cccc2OC)=NC3)ccc1C(=O)O [Alisertib]; conditions: max 10 µM
# Procedure, shortened: as §1
# Trametinib = compound: CC(=O)Nc1cccc(-n2c(=O)n(C3CC3)c(=O)c3c(Nc4ccc(I)cc4F)n(C)c(=O)c(C)c32)c1 [Trametinib]; conditions: max 1 µM
# Procedure, shortened: as §1
# [1] = compound: O=C(Nc1ccc2[nH]nc(-c3ccncc3)c2c1)[C@@H]1CCN(CC(=O)N2CCN(c3ccc(-c4ncccn4)cc3)CC2)C1; conditions: max 5 µM
# Procedure, shortened: as §1
# AZD6738 = compound: C[C@@H]1COCCN1C2=NC(=NC(=C2)C3(CC3)[S@](=N)(=O)C)C4=C5C=CNC5=NC=C4 [AZD6738]; conditions: max 10 µM
# Procedure, shortened: as §1
# AZD8186 = compound: C[C@@H](Nc1cc(F)cc(F)c1)c1cc(C(=O)N(C)C)cc2c(=O)cc(N3CCOCC3)oc12 [AZD8186]; conditions: max 10 µM
# Procedure, shortened: as §1
# SRA737 = compound: N#Cc1cnc(Nc2cc(NC[C@H]3CNCCO3)c(C(F)(F)F)cn2)cn1 [SRA737]; conditions: max 10 µM
# Procedure, shortened: as §1
# AZD4320 = compound: CN(CC[C@H](CSC1=CC=CC=C1)NC2=C(C=C(C=C2)S(=O)(=O)NC(=O)C3=CC=C(C=C3)N4CCC(CC4)[C@H](C5=CC=CC=C5C6=CC=C(C=C6)Cl)O)S(=O)(=O)C(F)(F)F)CCO [AZD4320]; conditions: max 1 µM
# Procedure, shortened: as §1
# AZD0156 = compound: CN(C)CCCOc1ccc(-c2ccc3ncc4c(c3c2)n(C2CCOCC2)c(=O)n4C)cn1 [AZD0156]
# Procedure, shortened: as §1
# Paclitaxel = compound: CC(=O)O[C@H]1C(=O)[C@@]2(C)[C@H]([C@H](OC(=O)c3ccccc3)[C@]3(O)C[C@H](OC(=O)[C@H](O)[C@@H](NC(=O)c4ccccc4)c4ccccc4)C(C)=C1C3(C)C)[C@]1(OC(C)=O)CO[C@@H]1C[C@@H]2O [Paclitaxel]; conditions: max 3 µM
# Procedure, shortened: as §1
# Palbociclib = compound: CC(=O)c1c(C)c2cnc(Nc3ccc(N4CCNCC4)cn3)nc2n(C2CCCC2)c1=O [Palbociclib]; conditions: max 10 µM
# Procedure, shortened: as §1
# 5-Fluorouracil = compound: O=c1[nH]cc(F)c(=O)[nH]1 [5-Fluorouracil]; conditions: max 20 µM
# Procedure, shortened: as §1
# Selumetinib = compound: Cn1cnc2c(F)c(Nc3ccc(Br)cc3Cl)c(C(=O)NOCCO)cc21 [Selumetinib]; conditions: max 10 µM
# Procedure, shortened: as §1
# AZD5153 = compound: COc1nnc2ccc(N3CCC(c4ccc(OCCN5CCN(C)C(=O)[C@H]5C)cc4)CC3)nn12 [AZD5153]; conditions: max 1 µM
# Procedure, shortened: as §1
# Prexasertib = compound: COc1cccc(OCCCN)c1-c1cc(Nc2cnc(C#N)cn2)n[nH]1 [Prexasertib]; conditions: max 1 µM
# Procedure, shortened: as §1
# MK-2206 = compound: NC1(c2ccc(-c3nc4ccn5c(=O)[nH]nc5c4cc3-c3ccccc3)cc2)CCC1 [MK-2206]; conditions: max 10 µM
# Procedure, shortened: as §1
# AZD7648 = compound: Cc1cc2ncnn2cc1Nc1ncc2c(n1)n(C1CCOCC1)c(=O)n2C [AZD7648]; conditions: max 10 µM
# Procedure, shortened: as §1
# AZD1390 = compound: CC(C)n1c(=O)n(C)c2cnc3cc(F)c(-c4ccc(OCCCN5CCCCC5)nc4)cc3c21 [AZD1390]; conditions: max 0.3 µM
# Procedure, shortened: as §1
# SG3199 = compound: CC1=CN2[C@@H](C1)C=NC3=CC(=C(C=C3C2=O)OC)OCCCCCOC4=C(C=C5C(=C4)N=C[C@@H]6CC(=CN6C5=O)C)OC [SG3199]; conditions: max 0.001 µM
# Procedure, shortened: as §1
Cell Line,"IC50, cell viability 72 h (Gemcitabine)","IC50, cell viability 72 h (SN-38)","IC50, cell viability 72 h (Dasatinib)","IC50, cell viability 72 h (Venetoclax)","IC50, cell viability 72 h (AZD2811)","IC50, cell viability 72 h (Taselisib)","IC50, cell viability 72 h (AZD5363)","IC50, cell viability 72 h (Olaparib)","IC50, cell viability 72 h (Savolitinib)","IC50, cell viability 72 h (Etoposide)","IC50, cell viability 72 h (Lapatinib)","IC50, cell viability 72 h (Carboplatin)","IC50, cell viability 72 h (Crizotinib)","IC50, cell viability 72 h (Gefitinib)","IC50, cell viability 72 h (Doxorubicin)","IC50, cell viability 72 h (AZD5991)","IC50, cell viability 72 h (AZD1775; max 3 µM)","IC50, cell viability 72 h (Alisertib)","IC50, cell viability 72 h (Trametinib)","IC50, cell viability 72 h [1]","IC50, cell viability 72 h (AZD6738)","IC50, cell viability 72 h (AZD8186)","IC50, cell viability 72 h (SRA737)","IC50, cell viability 72 h (AZD4320)","IC50, cell viability 72 h (AZD0156; max 3 µM)","IC50, cell viability 72 h (Paclitaxel)","IC50, cell viability 72 h (Palbociclib)","IC50, cell viability 72 h (5-Fluorouracil)","IC50, cell viability 72 h (Selumetinib)","IC50, cell viability 72 h (AZD5153)","IC50, cell viability 72 h (Prexasertib)","IC50, cell viability 72 h (MK-2206)","IC50, cell viability 72 h (AZD7648)","IC50, cell viability 72 h (AZD1390)","IC50, cell viability 72 h (SG3199)","IC50, cell viability 72 h (AZD1775; max 1 µM)","IC50, cell viability 72 h (AZD0156; max 1 µM)"
HDLM-2 (Hodgkin's Lymphoma),> 300 nM,206 nM,> 2000 nM,> 1000 nM,> 1000 nM,> 10000 nM,> 10000 nM,> 10000 nM,> 1000 nM,6080 nM,> 10000 nM,> 10000 nM,> 10000 nM,> 10000 nM,> 1000 nM,119 nM,387 nM,> 10000 nM,> 1000 nM,> 5000 nM,> 10000 nM,> 10000 nM,> 10000 nM,82.6 nM,> 3000 nM,27.4 nM,> 10000 nM,> 20000 nM,> 10000 nM,936 nM,504 nM,> 10000 nM,> 10000 nM,> 300 nM,> 1 nM,–,–
HMV-II (Melanoma),139 nM,127 nM,> 2000 nM,> 1000 nM,> 1000 nM,5060 nM,> 10000 nM,> 10000 nM,> 1000 nM,> 10000 nM,> 10000 nM,> 10000 nM,> 10000 nM,> 10000 nM,790 nM,> 1000 nM,1160 nM,> 10000 nM,8.78 nM,502 nM,> 10000 nM,> 10000 nM,> 10000 nM,> 1000 nM,> 3000 nM,310 nM,> 10000 nM,> 20000 nM,606 nM,463 nM,> 1000 nM,> 10000 nM,> 10000 nM,> 300 nM,> 1 nM,–,–
HO-1-u-1 (Oral Cavity Carcinoma),> 300 nM,239 nM,532 nM,> 1000 nM,> 1000 nM,618 nM,1310 nM,> 10000 nM,> 1000 nM,> 10000 nM,7600 nM,> 10000 nM,> 10000 nM,> 10000 nM,> 1000 nM,> 1000 nM,816 nM,6330 nM,> 1000 nM,4140 nM,3160 nM,> 10000 nM,6170 nM,> 1000 nM,> 3000 nM,820 nM,> 10000 nM,> 20000 nM,> 10000 nM,> 1000 nM,28.8 nM,> 10000 nM,> 10000 nM,> 300 nM,> 1 nM,–,–
Hs-633T (Other Solid Carcinomas),14.5 nM,38.2 nM,334 nM,> 1000 nM,> 1000 nM,7460 nM,> 10000 nM,> 10000 nM,> 1000 nM,5070 nM,> 10000 nM,> 10000 nM,7000 nM,> 10000 nM,380 nM,> 1000 nM,472 nM,9060 nM,656 nM,3360 nM,3300 nM,> 10000 nM,> 10000 nM,> 1000 nM,> 3000 nM,30.4 nM,> 10000 nM,> 20000 nM,> 10000 nM,570 nM,81.4 nM,> 10000 nM,> 10000 nM,> 300 nM,> 1 nM,–,–
MDA-MB-468 (Breast Carcinoma),263 nM,40 nM,> 2000 nM,> 1000 nM,> 1000 nM,> 10000 nM,> 10000 nM,> 10000 nM,–,> 10000 nM,9240 nM,> 10000 nM,> 10000 nM,–,> 1000 nM,> 1000 nM,1790 nM,1520 nM,415 nM,> 5000 nM,6880 nM,9070 nM,> 10000 nM,670 nM,> 3000 nM,111 nM,> 10000 nM,> 20000 nM,> 10000 nM,> 1000 nM,618 nM,9170 nM,> 10000 nM,> 300 nM,> 1 nM,–,–
RH-18 (Rhabdomyosarcoma),–,> 300 nM,–,–,> 1000 nM,–,–,> 10000 nM,–,–,–,–,–,–,909 nM,–,–,–,–,–,> 10000 nM,–,–,–,–,–,–,–,–,–,> 1000 nM,–,> 10000 nM,–,> 1 nM,> 1000 nM,> 1000 nM

# Reference: the supplement of paper PMC11061612
